Assay results: US20080311126A1, “Antisense Oligonucleotides Directed to Ribonucleotide Reducatase R2 and Uses Thereof in Combination Therapies for the Treatment of Cancer” (Genesense Technologies, Inc, priority 2004, published 2008)
“Also recorded” adds a separate entry of the source.

Tests used:
Human Melanoma = assay: Tumour growth assay, human melanoma in mice; format: in vivo
[1] = test system: Caki-1 human renal cancer cells; assay: Caki-1 renal tumour xenograft in SCID mice, SEQ ID NO:1 and chemotherapeutics; format: in vivo
Method: Caki-1 human renal cancer cells (1×10^7 cells in […] of PBS) were subcutanteously injected into the right flank of 6-7 weeks old female SCID mice. After the size of tumour reached an approximate volume of 200 mm^3, 7 days post tumour cell injection, SEQ ID NO:1 was administered by bolus infusion into the tail vein every other day at 10 mg/kg. Control animals received saline alone for the same period. The antitumour effect of SEQ ID NO:1 was further compared to that of two chemotherapeutic agents: 5-FU and vinblastine. 5-FU was administered intraperitoneally at days 7-13, 21-27 and 35-36 with a dose of 13 mg/kg/day, while vinblastin was administered intraperitoneally at days 7, 14, 21, 28 and 35 at a dose of 0.6 mg/kg/week. Antitumour effects of each of these compounds were further compared to those of SEQ ID NO:1 in combination with 5-FU or with vinblastin. The two chemotherapeutic agents were applied as described above, one hour after the treatments with SEQ ID NO:1 when combination treatments occurred on the same day. All treatments were stopped at day 36. A day after the last treatment, tumours were excised from the animals and their weights were measured.

[2] = test system: Human Ovary Adenocarcinoma; assay: Tumour growth assay, human ovary adenocarcinoma in Balb/c Nu-Nu mice; format: in vivo
Erythroleukemia = assay: Survival assay, erythroleukemia in mice; format: in vivo, murine
Method: For the study of the effect of the compositions on leukaemias, the animals are grafted with a particular number of cells, and the anti-tumour activity is determined by the increase in the survival time of the treated mice relative to the controls.

[3] = test system: MDA-MB-231 human breast cancer cells; assay: MDA-MB-231 breast tumour xenograft in CD-1 nude mice; format: in vivo
Method: MDA-MB-231 human breast cancer cells (1×10^7 cells in 100 μl of PBS) were subcutaneously injected into the right flank of 6-7 weeks old female CD-1 nude mice. After the size of tumour reached an approximate volume of 100 mm^3, 5 days post tumour cell injection, SEQ ID NO:1, or the scrambled control oligonucleotide (SEQ ID NO:3) were administered by bolus infusion into the tail vein every other day at 10 mg/kg. Control animals received saline alone for the same period. Antitumour effect of SEQ ID NO:1 was further compared to that of taxol or doxorubicin alone or in combination. Taxol was administered intravenously once a week at a dose of 10 mg/kg for three (FIG. 17A) or four weeks (FIG. 17C). Doxorubicin was administered intravenously once a week at a dose of 5 mg/kg for first three weeks (FIG. 17A) or for two weeks (FIG. 17C). All treatments were stopped at day 33 (FIG. 17A) or at day 26 (FIG. 17C), respectively. A day after the last treatment, tumours were excised from the animals and their weights were measured. […] In FIG. 17C, antitumour activities were estimated by the inhibition of tumour volume, which was measured with calipers. Each point represents mean tumour volume calculated from 10 animals per experimental group.

[4] = test system: BxPC-3 human pancreatic carcinoma cells; assay: BxPC-3 gemcitabine resistant pancreatic carcinoma xenograft in CD-1 nude mice; format: in vivo
Method: BxPC-3 human pancreatic carcinoma cells (3×10^6 cells in 100 μl of PBS) were subcutaneously injected into the right flank of 6-7 weeks old female CD-1 nude mice. BxPC-3 is a gemcitabine resistant call line. After the size of tumour reached an approximate volume of 100 mm^3, 21 days post tumour cell injection, SEQ ID NO:1 was administered by bolus infusion into the tail vein every other day at 10 mg/kg 17 times. Control animals received saline alone for the same period. Antitumour effect of SEQ ID NO:1 was further compared to that of Gemcitabine. Gemcitabine was administered intravenously every three days at a dose of 100 mg/kg. Antitumour activities were estimated by the inhibition of tumour volume, which was measured with caliper. Each point represents mean tumour volume calculated from 10 animals per experimental group. […] As expected, treatment with Gemcitabine during the same period was ineffective against Gemcitabine-resistant tumour (FIGS. 19A & B).

[5] = test system: MDA-MB-231 breast cell adenocarcinoma; assay: Relative colony forming efficiency (Example 17, Table 13); format: cell-based, human; details: averages of 2-8 determinations
Method in brief: (§1)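 Read-out: methylene blue-stained colonies scored and expressed as percent of control, given as % inhibition of colony forming ability. Cells had been exposed for four hours to phosphorothioate deoxyribonucleotides, usually 0.2 μM, complexed with 2.5 μg DOTMA/DOPE.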

[6] = test system: T24 bladder cell carcinoma; assay: as above; format: cell-based, human; details: averages of 2-8 determinations
Method in brief: as §1

[7] = test system: PC-3 prostrate cell adenocarcinoma; assay: as above; format: cell-based, human; details: averages of 2-8 determinations
Method in brief: as §1

[8] = test system: MDA PaCa-2 pancreatic cell carcinoma; assay: as above; format: cell-based, human; details: MIA PaCa-2 pancreatic cell carcinoma; averages of 2-8 determinations
Method in brief: as §1

[9] = test system: HepG2 hepatocellular carcinoma; assay: as above; format: cell-based, human; details: averages of 2-8 determinations
Method in brief: as §1

[10] = test system: HCT116 colon cell carcinoma; assay: as above; format: cell-based, human; details: averages of 2-8 determinations
Method in brief: as §1

A549 lung cell carcinoma = assay: as above; format: cell-based, human; details: averages of 2-8 determinations
Method in brief: as §1

[11] = test system: T-47D breast ductal carcinoma; assay: as above; format: cell-based, human; details: averages of 2-8 determinations
Method in brief: as §1

[12] = test system: Human Glioblastoma-Astrocytoma; assay: Tumour growth assay, human glioblastoma-astrocytoma in mice; format: in vivo
[13] = test system: Caki-1 human renal carcinoma; assay: Caki-1 renal tumour xenograft in SCID mice, SEQ ID NO:1 and interleukin-2; format: in vivo; details: Example 10; SEQ ID NO:1 10 mg/kg/48 hours i.v.; IL2 20000 or 5000 unit 2 times per day i.p.
Method: Cell line: Human renal carcinoma cell line (Caki-1) was grown as monolayer culture in Minimum essential medium (α-MEM) supplemented with 10% fetal bovine serum (FBS), 0.1 mM non-essential amino acid, 1.0 mM sodium pyruvate, 100 U/ml penicillin, 100 μg/ml streptomycin and 0.25 μg/ml amphotericin B and 2 mM L-alanyl-1-glutamine at 37° C. in an atmosphere of 5% CO2 in air. The tumour cells were routinely subcultured twice weekly by trypsin-EDTA treatment. The cells were harvested from subconfluent logarithmically growing culture by treatment with trypsin-EDTA and counted for tumour inoculation.
Tumour Inoculation: An acclimation period of at least 7 days was allowed between animal receipt and commencement of tumour inoculation. […]
Groups and treatments: The following treatments were evaluated in this experiment: • 1. […]
Tumour sizes were measured every week day from day 7 after the tumour cell inoculation in two dimensions using a caliper, and the volume was expressed in mm^3 using the formula: V=0.5 a×b^2, where a and b are the long and short diameters of the tumour, respectively. Mean tumour volumes calculated from each measurement were then plotted in a standard graph to compare the anti-tumour efficacy to that of controls. A day after the last treatment, tumours were excised from the animals and their weights were measured.

## GGCTAAATCGCTCCACCAAG (chemistry not given here) [SEQ ID NO: 1, antisense oligonucleotide that hybridizes to the coding region of human ribonucleotide reductase R2 mRNA]
Human Melanoma
  Inhibition of tumour weight: approximately 80%
[1]; Caki (renal), Mouse CD-1
  Tumour weight as % of saline control: 3.3%
[1]; SEQ ID NO:1 10 mg/kg every other day i.v., 5-FU 13 mg/kg/day i.p., vinblastin 0.6 mg/kg/week i.p.
  antitumour effect (tumour weight): significant delay of tumour growth; also recorded: superior to the inhibitory effects observed with each of two chemotherapeutic compounds
[2]; Balb/c Nu-Nu mice, Days 19 to 25 after tumour implantation
  Inhibition of tumour size: approximately 35% in Balb/c Nu-Nu
[2]; Human Ovary Adenocarcinoma
  Inhibition of tumour weight: of approximately 50%
Erythroleukemia; Erythroleukemia
  effect of treatment on survival: Treatment prolonged survival
Erythroleukemia; untreated died within 36 days, one treated mouse died at day 22
  survival of treated mice: Treated mice survived beyond day 71
[3]; MDA-MB-231 (breast), Mouse CD-1
  Tumour weight as % of saline control: 12.6%
[3]; oligonucleotide 10 mg/kg every other day i.v., taxol 10 mg/kg, doxorubicin 5 mg/kg i.v. once a week
  antitumour effect (tumour weight, tumour volume): delay of tumour growth compared to saline control in all three experiments; also recorded: superior to the inhibitory effects observed with taxol or doxorubicin alone
[4]; BxPC-3 (pancreatic), Gemcitabine resistance, CD-1
  Tumour weight as % of saline control: 5.8%
[4]; SEQ ID NO:1 10 mg/kg 17 times i.v., Gemcitabine 100 mg/kg i.v. every three days
  antitumour effect (tumour volume): significant delay of tumour growth
[5]
  Reduced relative colony forming efficiency, MDA-MB-231 (% inhibition of colony forming ability): 90.21%
[6]
  Reduced relative colony forming efficiency, T24 (% inhibition of colony forming ability): 76.79%
[7]
  Reduced relative colony forming efficiency, PC-3 (% inhibition of colony forming ability): 83.23%
[8]
  Reduced relative colony forming efficiency, MIA PaCa-2 (% inhibition of colony forming ability): 75.62%
[9]
  Reduced relative colony forming efficiency, HepG2 (% inhibition of colony forming ability): 75.89%
[10]
  Reduced relative colony forming efficiency, HCT116 (% inhibition of colony forming ability): 70.46%
A549 lung cell carcinoma
  Reduced relative colony forming efficiency, A549 (% inhibition of colony forming ability): 95.14%
[11]
  Reduced relative colony forming efficiency, T-47D (% inhibition of colony forming ability): 66.12%
[12]
  Inhibition of tumour weight: approximately 65%
[13]
  anti-tumour efficacy (tumour volume, tumour weight): anti-tumour efficacy as monotherapies; also recorded: superior to both high and low dose IL-2 therapy
